Test results as given in patent US7081256B2, “Quinolinone derivative pharmaceutical compositon and production method therefor” (Dainippon Ink and Chemicals, Inc., priority 2001, dated 2006).
Where two headings read alike, the source gives them in different places. Values belong to the compound of their own block, whether it stands above or below them.

Experiments:
[1] = Measurement of particle size distribution (AEROSIZER); assay type: physicochemical; details: for Average particle diameter: mass median aerodynamic diameter
Description: As used herein, the expression “quinolinone derivative is in the form of particles, which have an average particle diameter of 0.5 to 10 μm and such a particle size distribution that particles having a particle diameter of 15 μm or less account for 90% or more of the totality of the particles” means that a mass median aerodynamic diameter in the volume-basis distribution obtained, when the particle size distribution of the quinolinone derivative is measured by an aerodynamic flight time type dry particle size distribution measuring apparatus (AEROSIZER: Central Scientific Commerce, Inc.), is within a range from 0.5 to 10 μm and the particles have such a particle size distribution that particles having a particle diameter of 15 μm or less account for 90% or more of the totality of the particles.
(§1) • Measurement of particle size distribution: The particle size distribution was automatically measured by AEROSIZER (manufactured by Central Scientific Commerce, Inc.). • DSC method: Using DSC7 (manufactured by Perkin Elmer Co.), the measurement was conducted at a temperature within a range from 25 to 250° C. under the conditions of a heating rate of 20° C./min. by a normal method.

[2] = Dissolution test, paddle method, 50 rpm, 0.5% sodium lauryl sulfate; assay type: physicochemical; details: paddle 50 rpm, compared with the non-ground product
Description: Furthermore, dissolution properties of these quinolinone derivatives were evaluated by the dissolution test (paddle method). The results are shown in FIG. 2. • Powder X-ray diffraction method: Using RINT-ULTIMA (manufactured by Rigaku Denki Kogyo Co., Ltd.), the measurement was conducted at a diffraction angle within a range from 5 to 40° under the conditions of Cu—Kα rays, 40 KV and 30 mA by the normal method. • Dissolution test method: According to the second method (paddle method) of the dissolution test method of The Pharmacopoeia of Japan, Fourteenth Edition, the measurement was conducted under the conditions of a paddle rotational speed of 50 rpm using 0.5% sodium lauryl sulfate as a test liquid.
(§2) According to the disintegration test of The Pharmacopoeia of Japan, Fourteenth Edition, the disintegration time of the resulting tablets was measured by using water as a test liquid (n=3). […]
as §2, §2

[3] = Differential scanning calorimetry (DSC); assay type: physicochemical; details: for DSC Fusion enthalpy ΔH: 25 to 250° C., heating rate 20° C./min.
Text: Furthermore, the quinolinone derivative used in the present invention has a fusion enthalpy (ΔH) of 30 J/g or more, and preferably 35 J/g or more. […] As used herein, the term “fusion enthalpy” refers to a value obtained from an endothermic peak due to fusion of the quinolinone derivative crystal in differential scanning calorimetry (DSC) and is an index of the crystallinity.
as §1

[4] = dog, in vivo, po, 10 mg/kg
Description: After oral administration, 30 ml of distilled water was orally administered. After oral administration, 2.5 ml of blood was collected from the antebrachial vein over time and was then centrifuged to obtain blood plasma. After adding the one-fold amount of acetonitrile to blood serum to remove protein, the amounts of quinolinone derivative and its metabolite were determined by using HPLC.
From the quantitatively determined values of the quinolinone derivative and its metabolite immediately after collecting blood, an average value of a maximum concentration in blood (Cmax) and an average value of an area under a curve of concentration in blood vs time (AUC) were determined.

Compound: CCCCCCCCOc1c(O)c2ccc(NC(=O)/C=C/c3cc(OC)c(O)c(OC)c3)cc2n(C)c1=O [quinolinone derivative (A), 7-(3,5-dimethoxy-4-hydroxycinnamoylamino)-3-octyloxy-4-hydroxy-1-methyl-2(1H)-quinoline]
Proportion (%) of particles having a particle diameter of 15 μm or less based on the totality of the particles [1]: ≥ 9.9%
Proportion (%) of particles having a particle diameter of 15 μm or less based on the totality of the particles ([1]; listed as (A)): 9.9%
Average particle diameter [1]: 25.3 μm
Average particle diameter ([1]; listed as (A)): 25.3 μm
DSC Fusion enthalpy ΔH [3]: ≥ 49.9 J/g
DSC Fusion enthalpy ΔH ([3]; listed as (A)): 49.9 J/g

Compound: CCCCCCCCOc1c(O)c2ccc(NC(=O)/C=C/c3cc(OC)c(O)c(OC)c3)cc2n(C)c1=O [Comparative Example 2, 7-(3,5-dimethoxy-4-hydroxycinnamoylamino)-3-octyloxy-4-hydroxy-1-methyl-2(1H)-quinoline]
Solid state by DSC (endothermic peak of β-type crystal) ([3]; after grinding in agate mortar for 30 minutes): amorphous state

Next, values leading:

Proportion (%) of particles having a particle diameter of 15 μm or less based on the totality of the particles ([1]; listed as (A-1)): 100%
Average particle diameter ([1]; listed as (A-1)): 4.5 μm
dissolution rate (FIG. 2) [2]: drastically increased
DSC Fusion enthalpy ΔH ([3]; listed as (A-1)): 47.7 J/g
Compound: CCCCCCCCOc1c(O)c2ccc(NC(=O)/C=C/c3cc(OC)c(O)c(OC)c3)cc2n(C)c1=O [quinolinone derivative (A-1), 7-(3,5-dimethoxy-4-hydroxycinnamoylamino)-3-octyloxy-4-hydroxy-1-methyl-2(1H)-quinoline]

Proportion (%) of particles having a particle diameter of 15 μm or less based on the totality of the particles ([1]; listed as (B-1)): 95%
Average particle diameter ([1]; listed as (B-1)): 6.6 μm
DSC Fusion enthalpy ΔH ([3]; listed as (B-1)): 51.6 J/g
AUC increase as compared with the non-ground product [4]: 8.7 times
Cmax increase as compared with the non-ground product [4]: 9 times
Compound: CCCCCCCCOc1c(O)c2ccc(NC(=O)/C=C/c3cc(OC)c(O)c(OC)c3)cc2n(C)c1=O [quinolinone derivative (B-1), 7-(3,5-dimethoxy-4-hydroxycinnamoylamino)-3-octyloxy-4-hydroxy-1-methyl-2(1H)-quinoline]

Proportion (%) of particles having a particle diameter of 15 μm or less based on the totality of the particles [1]: ≥ 0.6%
Proportion (%) of particles having a particle diameter of 15 μm or less based on the totality of the particles ([1]; listed as (B)): 0.6%
Average particle diameter [1]: 33.3 μm
Average particle diameter ([1]; listed as (B)): 33.3 μm
DSC Fusion enthalpy ΔH [3]: ≥ 52.7 J/g
DSC Fusion enthalpy ΔH ([3]; listed as (B)): 52.7 J/g
Compound: CCCCCCCCOc1c(O)c2ccc(NC(=O)/C=C/c3cc(OC)c(O)c(OC)c3)cc2n(C)c1=O [quinolinone derivative (B), 7-(3,5-dimethoxy-4-hydroxycinnamoylamino)-3-octyloxy-4-hydroxy-1-methyl-2(1H)-quinoline]
